From PMC8041284, “Tunable Methacrylamides for Covalent Ligand Directed Release Chemistry” (Journal of the American Chemical Society, 2021)

target: BTK (Homo sapiens, UniProt Q06187); experiment: biochemical; conditions: read-out: BTK inhibition (%)
Sequence (Q06187 402-655 limits assumed): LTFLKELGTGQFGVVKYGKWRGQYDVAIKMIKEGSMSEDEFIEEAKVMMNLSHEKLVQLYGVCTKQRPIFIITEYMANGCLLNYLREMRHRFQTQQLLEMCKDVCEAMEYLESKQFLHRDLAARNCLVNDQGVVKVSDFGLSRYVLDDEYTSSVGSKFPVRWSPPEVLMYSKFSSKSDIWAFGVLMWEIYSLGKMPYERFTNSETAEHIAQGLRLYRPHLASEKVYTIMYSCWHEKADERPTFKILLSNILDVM

| Compound | inhibition at 10 µM |
| --- | --- |
| S=C=Nc1cccc(NC(=S)NCCCCNC(=S)Nc2cccc(N=C=S)c2)c1 [PCM-0095477] | 38.9% |

same assay, conditions: read-out: BTK inhibition (%), 0.75 uM BTK, […] probe 3l, 15 min preincubation

| inhibition at 10 µM | Compound |
| --- | --- |
| -12.5% | CC(C)c1ccc(NC(=O)Cn2cnc3c2c(=O)n(C)c(=O)n3C)cc1 [PCM-0095403] |
| 41.4% | CN1CCN(c2cccc(Nc3nc4c(-c5ccc(S(C)(=O)=O)cc5)cccn4n3)c2)CC1 [PCM-0095404] |
| 75.2% | Cc1c(CN2CCN(C(=O)[C@H](C)O)CC2)sc2c(N3CCOCC3)nc(-c3cnc(N)nc3)nc12 [PCM-0095406] |
| 51.7% | N#Cc1c(O)c2c(-c3ccc(-c4ccccc4O)cc3)csc2[nH]c1=O [PCM-0095407] |
| -5.5% | CS(=O)(=O)N1CCc2c(-c3cnc(N)nc3)nc(N3CCOCC3)nc21 [PCM-0095409] |
| -2.8% | O=C(Cc1ccc(-c2ccc(OCCN3CCOCC3)cc2)cn1)NCc1ccccc1 [PCM-0095410] |
| 13.8% | CNC(=O)c1c(F)cccc1Nc1nc(Nc2cc3c(cc2OC)CCN3C(=O)CN(C)C)nc2[nH]ccc12 [PCM-0095412] |
| -24.7% | c1ccc(-c2nn3c(c2-c2ccnc4cc(OCCN5CCOCC5)ccc24)CCC3)nc1 [PCM-0095413] |
| 4.8% | C[C@H](NC(=O)Cc1cc(F)cc(F)c1)C(=O)N[C@@H]1C(=O)N(C)c2ccccc2-c2ccccc21 [PCM-0095414] |
| 4.7% | Cc1ccccc1C(=O)Nc1ccc(C(=O)N2CCCC(O)c3cc(Cl)ccc32)c(C)c1 (stereo not drawn) [PCM-0095415] |
| 0% | COC1=C2C[C@@H](C)C[C@H](OC)[C@H](O)[C@@H](C)/C=C(\C)[C@H](OC(N)=O)[C@@H](OC)/C=C\C=C(/C)C(=O)NC(=CC1=O)C2=O [PCM-0095416] |
| 6.2% | C[C@H](NC(=O)[C@@H](O)c1cc(F)cc(F)c1)C(=O)N[C@@H]1C(=O)N(C)c2ccccc2-c2ccccc21 [PCM-0095417] |
| 39.3% | CC(C)(C)c1nc(-c2cccc(NS(=O)(=O)c3c(F)cccc3F)c2F)c(-c2ccnc(N)n2)s1 [PCM-0095418] |
| -4.1% | CC(C)NC[C@@H](C(=O)N1CCN(c2ncnc3c2[C@H](C)C[C@H]3O)CC1)c1ccc(Cl)cc1 [PCM-0095420] |
| -2.3% | Cc1ccc(-c2c(-c3nn(C)c4ncnc(N5CC[C@H](N6CCCCC6)C5)c34)cnn2C)cc1 [PCM-0095421] |
| -16.6% | C#Cc1cccc(Nc2ncnc3cc4c(cc23)OCCOCCOCCO4)c1 [PCM-0095422] |
| -6.2% | CC(C)n1nc(-c2ccc3oc(N)nc3c2)c2c(N)ncnc21 [PCM-0095423] |
| 16.3% | Cc1cc(C)c2c(c1)[C@@H](N(Cc1cc(C(F)(F)F)cc(C(F)(F)F)c1)c1nnn(C)n1)CCCN2CC1CCC(C(=O)O)CC1 (stereo partly drawn) [PCM-0095426] |
| -7.6% | Cc1nc(NC(=O)N2CCC[C@H]2C(N)=O)sc1-c1ccnc(C(C)(C)C(F)(F)F)c1 [PCM-0095427] |
| 4.8% | Cn1sc(=O)n(Cc2ccccc2)c1=O [PCM-0095428] |
| 9.3% | O=C1C(=O)N(Cc2ccc(Cl)c(Cl)c2)c2ccccc21 [PCM-0095429] |
| 9.7% | Nc1ccc(-c2ccc3ncc4ccc(=O)n(-c5cccc(C(F)(F)F)c5)c4c3c2)cn1 [PCM-0095430] |
| -17.1% | CC(=O)Nc1ccc(C(=O)Nc2ccccc2N)cc1 [PCM-0095432] |
| -11.7% | Cc1ccc(C(=O)Cn2c3c(sc2=N)CCCC3)cc1 [PCM-0095433] |

| inhibition at 10 µM | Compound |
| --- | --- |
| 93.1% | CCS(=O)(=O)c1cccc(-c2cc(C(=O)NC3CCN(C)CC3)c(C)c3[nH]c4ncc(C)cc4c23)c1 [PCM-0095437] |
| 97.9% | Cc1csc(-c2nnc(Nc3ccc(Oc4ncccc4-c4ccnc(N)n4)cc3)c3ccccc23)c1 [PCM-0095438] |
| 33.5% | CCc1ccc(OCc2ccccc2C(=O)Nc2ccc3nc(C)cc(N)c3c2)cc1 [PCM-0095441] |
| -14.5% | CNC(=O)c1ccc(C)c(-n2c(C)cc(OCc3ccc(F)cc3F)c(Br)c2=O)c1 [PCM-0095443] |
| 18.6% | COc1cc2ncnc(Nc3ccc(F)c(Cl)c3)c2cc1NC(=O)/C=C/CN1CCCCC1 [PCM-0095444] |
| 34.2% | Cc1c(C(=O)NN2CCCCC2)nn(-c2ccc(Cl)cc2Cl)c1-c1ccc(I)cc1 [PCM-0095445] |
| -10.9% | CN1c2cc(O)c(N=NC(N)=O)cc2CC1S(=O)(=O)O (stereo not drawn) [PCM-0095446] |
| 67.6% | CNC(=O)c1ccccc1Nc1nc(Nc2ccc(N3CCOCC3)cc2OC)ncc1Cl [PCM-0095447] |
| 4.7% | O=C(NC[C@H]1CN(c2ccc(N3CCOCC3=O)cc2)C(=O)O1)c1ccc(Cl)s1 [PCM-0095448] |
| 7.6% | O=C(O)C(Cc1c[nH]c2ccccc12)N1C(=O)c2ccccc2C1=O (stereo not drawn) [PCM-0095449] |
| -12.4% | O=c1sn(-c2cccc3ccccc23)c(=O)n1Cc1ccccc1 [PCM-0095450] |
| -4.3% | CC(=O)N[C@H]1[C@H]([C@H](O)[C@H](O)CO)OC(C(=O)O)=C[C@@H]1N=C(N)N [PCM-0095451] |
| 96.6% | NC(=O)Nc1sc(-c2ccc(F)cc2)cc1C(N)=O [PCM-0095452] |
| -15.9% | CC(C(=O)O)c1ccc2c(c1)CC(=O)c1ccccc1S2 (stereo not drawn) [PCM-0095453] |
| -19.5% | COc1ccc(CNCc2cccc3ccccc23)cc1 [PCM-0095454] |
| -25.5% | CCC(=O)N1CCN(c2ccc(-n3c(=O)ccc4cnc5ccc(-c6cnc7ccccc7c6)cc5c43)cc2C(F)(F)F)CC1 [PCM-0095455] |
| 6.8% | c1cc(CN2CCCNCCNCCCNCC2)ccc1CN1CCCNCCNCCCNCC1 [PCM-0095456] |
| -3.1% | CNC(=O)c1ccc(N2C(=S)N(c3cnc(C#N)c(C(F)(F)F)c3)C(=O)C23CCC3)cc1F [PCM-0095458] |
| 6.2% | CC1(COc2ccc3c(c2)ncn3-c2ccc3cccc(N4CCC(N)CC4)c3n2)COC1 [PCM-0095459] |
| -15.2% | COc1cc(OC2CCN(C)CC2)ccc1Nc1ncc2c(n1)n(C1CCCC1)c(=O)n2C [PCM-0095460] |
| 7.6% | Cn1c(=O)c(F)c(Nc2ccc(I)cc2F)c2c(=O)n(C[C@@H](O)CO)cnc21 [PCM-0095463] |
| 48.3% | CCn1cc(-c2ccnc3[nH]c(-c4cccc(CN(C)C)c4)cc23)c(-c2ccc(NC(=O)N(C)C)cc2)n1 [PCM-0095464] |
| 0% | COc1cccc(Nc2c(C(N)=O)cnc3c(C)cc(S(=O)(=O)c4cccc(C(=O)N(C)C)c4)cc23)c1 [PCM-0095466] |
| -9.7% | COc1ccc(-c2cc3c(C)nc(N)nc3n(C3CCC(OCCO)CC3)c2=O)cn1 (stereo not drawn) [PCM-0095467] |

| inhibition at 10 µM | Compound |
| --- | --- |
| 48.3% | CC(C)CCN1c2nc(Nc3cc(F)c(O)c(F)c3)ncc2N(C)C(=O)C1C (stereo not drawn) [PCM-0095469] |
| 42% | Cc1c(C(=O)NN2CCCCC2)nn(-c2ccc(Cl)cc2Cl)c1-c1ccc(Cl)cc1 [PCM-0095470] |
| -18.7% | Cn1nc(C(C)(C)C)cc1C(=O)N[C@@H](Cc1cccc(Cl)c1)C(=O)NCC#N [PCM-0095472] |
| -20% | CCS(=O)(=O)N1CC(CC#N)(n2cc(-c3ncnc4[nH]ccc34)cn2)C1 [PCM-0095473] |
| -17.1% | CC(C)C[C@H](NC(=O)[C@H](CCc1ccccc1)NC(=O)CN1CCOCC1)C(=O)N[C@@H](Cc1ccccc1)C(=O)N[C@@H](CC(C)C)C(=O)[C@@]1(C)CO1 [PCM-0095475] |
| -2.3% | COc1ccc2c(c1)=C(CC(=O)N1CCOCC1)C(C)(C(=O)c1ccc(Cl)cc1)N=2 (stereo not drawn) [PCM-0095476] |
| 48.3% | Cc1ncc(-c2ccnc(Nc3ccc(S(C)(=O)=O)cc3)n2)n1C(C)C [PCM-0095478] |
| 4.3% | Cc1cc(CN2CCN(c3c(Br)cnc4nc(-c5ccc(N6CCN(C)CC6)cc5)[nH]c34)CC2)no1 [PCM-0095479] |
| 20.7% | Nc1nc(NCCNc2ncc(-n3ccnc3)c(-c3ccc(Cl)cc3Cl)n2)ccc1[N+](=O)[O-] [PCM-0095481] |
| 28.3% | COc1cccc2cc(-c3nc(C4CCC(C(=O)O)CC4)n4ncnc(N)c34)[nH]c12 (stereo not drawn) [PCM-0095482] |
| 44.1% | Cc1ccc(NC(=O)c2cccc(C(C)(C)C#N)c2)cc1Nc1ccc2ncn(C)c(=O)c2c1 [PCM-0095483] |
| 12.4% | COc1ccc2c(Oc3ccc(NC(=O)c4c(C)n(CC(C)(C)O)n(-c5ccccc5)c4=O)nc3)ccnc2c1 [PCM-0095484] |
| 7.6% | Cc1cnc(NC(=O)Nc2cc(Br)c(C)cc2OC[C@@H]2CNCCO2)cn1 [PCM-0095485] |
| 22.6% | COc1cc(F)c(C(C)C)cc1-c1ccc(C(F)(F)F)cc1CN1C(=O)O[C@H](c2cc(C(F)(F)F)cc(C(F)(F)F)c2)[C@@H]1C [PCM-0095486] |
| 0.8% | CN1CCc2c(c3ccccc3n2Cc2ccc(C(=O)NO)cc2)C1 [PCM-0095487] |
| 0.7% | COc1ccc(-c2ccc3ncc4c(c3c2)n(-c2ccc(N3CCNCC3)c(C(F)(F)F)c2)c(=O)n4C)cn1 [PCM-0095488] |
| 1.6% | O=C(NC1CCOCC1)c1ccc(-c2cc(-c3cn[nH]c3-c3ccccn3)ccn2)cc1 [PCM-0095490] |
| 10.9% | COc1cc(OC)c(NC(=O)Nc2cc(C)on2)cc1Cl [PCM-0095491] |
| 44.1% | CNC(=O)c1nn(C)c2c1C(C)(C)Cc1cnc(Nc3ccc(N4CCN(C)CC4)cc3)nc1-2 [PCM-0095492] |
| 23.4% | O=C(O)Cc1cccc(OCCCN(Cc2cccc(C(F)(F)F)c2Cl)CC(c2ccccc2)c2ccccc2)c1 [PCM-0095493] |
| -21.4% | Cc1cc(Nc2ncnc3ccc(-c4ccc(CNCCS(C)(=O)=O)o4)cc23)ccc1Oc1ccn2ncnc2c1 [PCM-0095494] |
| -35% | COc1ccc(NS(=O)(=O)c2sc3ccc(Cl)cc3c2C)cc1N1CCNCC1 [PCM-0095497] |
| 1.6% | N#C[C@@H]1CCCN1C(=O)CNC12CC3CC(CC(O)(C3)C1)C2 [PCM-0095499] |
| 34.2% | CC(C)n1cnc2c(NCCc3ccc(O)cc3)nc(-c3csc4ccccc34)nc21 [PCM-0095500] |

| Compound | inhibition at 10 µM |
| --- | --- |
| O=C(O)CNC(=O)c1c(O)c2ccccc2n(Cc2ccccc2)c1=O [PCM-0095405] | -23.3% |
| NC(=O)c1cccc(-c2cccc(OC(=O)NC3CCCCC3)c2)c1 [PCM-0095495] | -6.2% |
